Reference: ChEMBL document CHEMBL1201862, “PubChem BioAssay data set” (2004)
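Values below derive from 48-hour exposures of cells grown in 96-well plates, with endpoints linearly interpolated between the two concentrations bracketing the appropriate inhibition level. GI50 is the concentration that inhibits growth by half.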 Calls of active or inactive are those of the source. Rule as the data show it: active = GI50 up to about 1.1 µM and inactive = higher.

Assays:
Test in all cases: growth of human tumour cells (NCI), 48 h
[1] = tested on: HOP-92
[2] = tested on: LOX IMVI
[3] = tested on: EKVX
[4] = tested on: UACC-257
[5] = tested on: NCI-H226
[6] = tested on: ACHN
[7] = tested on: DU-145
[8] = tested on: SR
[9] = tested on: NCI/ADR-RES
[10] = tested on: PC-3
[11] = tested on: MDA-MB-435
[12] = tested on: M14
[13] = tested on: NCI-H522
[14] = tested on: Malme-3M
[15] = tested on: HCC 2998
[16] = tested on: MCF7
[17] = tested on: HOP-62
[18] = tested on: DMS-114
[19] = tested on: M19-MEL
[20] = tested on: SNB-78

SMILES	GI50 [1]	GI50 [2]	GI50 [3]	GI50 [4]	GI50 [5]	GI50 [6]	GI50 [7]	GI50 [8]	GI50 [9]	GI50 [10]	GI50 [11]	GI50 [12]	GI50 [13]	GI50 [14]	GI50 [15]	GI50 [16]	GI50 [17]	GI50 [18]	GI50 [19]	GI50 [20]
c1ccc(CN2CCC3(CC2)SSC2(CCN(Cc4ccccc4)CC2)SS3)cc1	> 100 µM (inactive)	> 100 µM (inactive)	12.9 µM (inactive)	59.7 µM (inactive)	> 100 µM (inactive)	> 100 µM (inactive)	> 100 µM (inactive)	83.2 µM (inactive)	> 100 µM (inactive)	> 100 µM (inactive)	> 100 µM (inactive)	> 100 µM (inactive)	37 µM (inactive)	97.5 µM (inactive)	45.5 µM (inactive)	> 100 µM (inactive)	> 100 µM (inactive)			
O=C(NN1C(=O)C(Cl)C1c1cccc([N+](=O)[O-])c1)c1ccccc1O (stereo not given)	> 100 µM (inactive)		> 100 µM (inactive)	> 100 µM (inactive)				> 100 µM (inactive)				> 100 µM (inactive)	28.3 µM (inactive)	59.8 µM (inactive)			> 100 µM (inactive)	> 100 µM (inactive)	> 100 µM (inactive)	
O=C(Nc1ccc([N+](=O)[O-])cc1[N+](=O)[O-])C(=O)C(C(=O)c1ccc2ccccc2c1)C1OC(=O)c2ccccc21 (stereo not given)	17.8 µM (inactive)	16.7 µM (inactive)	15.5 µM (inactive)	24.4 µM (inactive)	2.69 µM (inactive)	25.6 µM (inactive)		0.817 µM (active)				15.9 µM (inactive)	10.4 µM (inactive)		12.4 µM (inactive)		22.4 µM (inactive)	17.9 µM (inactive)	12.2 µM (inactive)	21.4 µM (inactive)
CC(=O)Nc1ccc(C2=N/C(=C\c3ccc(Cl)c(Cl)c3)C(=O)O2)cc1	68.9 µM (inactive)	30 µM (inactive)	> 100 µM (inactive)	> 100 µM (inactive)	> 100 µM (inactive)	> 100 µM (inactive)		68.9 µM (inactive)				> 100 µM (inactive)	> 100 µM (inactive)	> 100 µM (inactive)	> 100 µM (inactive)		> 100 µM (inactive)	> 100 µM (inactive)	82.6 µM (inactive)	> 100 µM (inactive)
Cc1ccc(S(=O)(=O)NNC2Oc3cc4c(cc3C(c3ccccc3O)C2C)OCO4)cc1 (stereo not given)	17.1 µM (inactive)	15.2 µM (inactive)	10.7 µM (inactive)	10.8 µM (inactive)	12.4 µM (inactive)	13.2 µM (inactive)	13 µM (inactive)	13.3 µM (inactive)		10.1 µM (inactive)	13 µM (inactive)	13.4 µM (inactive)	12.4 µM (inactive)	12.2 µM (inactive)	16.9 µM (inactive)	14.9 µM (inactive)	15.1 µM (inactive)			
Cn1c(=O)ccc2c(=O)c3ccccc3oc21	67.6 µM (inactive)	> 100 µM (inactive)	> 100 µM (inactive)		> 100 µM (inactive)	> 100 µM (inactive)	> 100 µM (inactive)	> 100 µM (inactive)	> 100 µM (inactive)	> 100 µM (inactive)	> 100 µM (inactive)	> 100 µM (inactive)	> 100 µM (inactive)	> 100 µM (inactive)	> 100 µM (inactive)		> 100 µM (inactive)			
NC(CCOCCP(=O)(O)CCC1C=CC=CC1)C(=O)O (stereo not given)	> 100 µM (inactive)	73.5 µM (inactive)	> 100 µM (inactive)	> 100 µM (inactive)		> 100 µM (inactive)	> 100 µM (inactive)	> 100 µM (inactive)	> 100 µM (inactive)	> 100 µM (inactive)	> 100 µM (inactive)	> 100 µM (inactive)	> 100 µM (inactive)		> 100 µM (inactive)	> 100 µM (inactive)				
COc1ccccc1N1C(Cl)C(=O)C1c1c[nH]c2ccccc12 (stereo not given)	> 100 µM (inactive)		> 100 µM (inactive)	> 100 µM (inactive)				> 100 µM (inactive)				> 100 µM (inactive)	> 100 µM (inactive)				> 100 µM (inactive)	> 100 µM (inactive)	> 100 µM (inactive)	
Cc1c2[nH]c3ccc(Br)cc3c2c(C)c2nccc(O)c12		15.5 µM (inactive)	16.4 µM (inactive)	16.4 µM (inactive)	16.6 µM (inactive)	10.1 µM (inactive)		12.1 µM (inactive)				12.8 µM (inactive)	12 µM (inactive)	13 µM (inactive)	16.2 µM (inactive)		13.1 µM (inactive)	17.7 µM (inactive)	14.6 µM (inactive)	16.2 µM (inactive)
Nc1nc(N)c2c(CCc3ccc(C(=O)N[C@@H](CCC(=O)O)C(=O)O)cc3)ccnc2n1	1.21 µM (inactive)	< 0.01 µM (active)	> 100 µM (inactive)	0.257 µM (active)	> 100 µM (inactive)	< 0.0236 µM (active)	0.055 µM (active)		< 0.0211 µM (active)	17.7 µM (inactive)	< 0.01 µM (active)	< 0.0218 µM (active)	0.0855 µM (active)		< 0.01 µM (active)	< 0.01 µM (active)				
CC(C)(CCCCC(C)(C)NC1=NCCO1)NC1=NCCO1		> 10 µM (inactive)	> 10 µM (inactive)		> 10 µM (inactive)	> 10 µM (inactive)	> 10 µM (inactive)	> 10 µM (inactive)	> 10 µM (inactive)	> 10 µM (inactive)	> 10 µM (inactive)	> 10 µM (inactive)	> 10 µM (inactive)	> 10 µM (inactive)	> 10 µM (inactive)	> 10 µM (inactive)	> 10 µM (inactive)			
C=C1C(=O)OC2/C=C(\C)CC/C=C(/C)CC(OC(=O)/C(=C/CO)CO)C12 (stereo not given)	26.7 µM (inactive)	23.4 µM (inactive)	> 10 µM (inactive)	16.4 µM (inactive)		17.8 µM (inactive)	17.5 µM (inactive)	28.6 µM (inactive)	32.6 µM (inactive)	> 100 µM (inactive)	27.8 µM (inactive)	18.1 µM (inactive)	17.1 µM (inactive)	20.1 µM (inactive)	23 µM (inactive)	19.6 µM (inactive)	> 100 µM (inactive)			
O=C1CC2(CCC(O)(c3ccco3)C(C(=O)c3ccco3)C2)C(=O)c2ccccc2N1 (stereo not given)	56.9 µM (inactive)	48.6 µM (inactive)	> 100 µM (inactive)	> 100 µM (inactive)	> 100 µM (inactive)		> 100 µM (inactive)	> 100 µM (inactive)	64.6 µM (inactive)	54 µM (inactive)	> 100 µM (inactive)	99.5 µM (inactive)		> 100 µM (inactive)	55.8 µM (inactive)	> 100 µM (inactive)	> 100 µM (inactive)			
NC1C2C=CC(C2)C1C(=O)O (stereo not given)	> 100 µM (inactive)	> 100 µM (inactive)	> 100 µM (inactive)		> 100 µM (inactive)	> 100 µM (inactive)	> 100 µM (inactive)		> 100 µM (inactive)	> 100 µM (inactive)	> 100 µM (inactive)	> 100 µM (inactive)	> 100 µM (inactive)	> 100 µM (inactive)		> 100 µM (inactive)	> 100 µM (inactive)			
CC(=O)O[C@H]1[C@@H](OC(C)=O)C(C)(C)/C=C/[C@H](C)C(=O)[C@@]2(OC(C)=O)C[C@@](C)(OC(C)=O)[C@H](OC(C)=O)[C@@H]2[C@H]2OC(=O)CC[C@@]2(OC(=O)c2ccccc2)[C@@H]1OCC(C)C	0.977 µM (active)	> 100 µM (inactive)	87.9 µM (inactive)	85.1 µM (inactive)	92 µM (inactive)	15.6 µM (inactive)	97.3 µM (inactive)		69 µM (inactive)	17.5 µM (inactive)	8.39 µM (inactive)	15.6 µM (inactive)	32.4 µM (inactive)	22.9 µM (inactive)	19.5 µM (inactive)	37 µM (inactive)	6.04 µM (inactive)			
O=C1C=CC2(O[C@@H](Cc3ccccc3)[C@H](Cc3ccccc3)O2)C(SC(=O)c2ccccc2)C1 (stereo not given in full)	1.54 µM (inactive)	0.38 µM (active)		1.18 µM (inactive)	1.52 µM (inactive)	0.929 µM (active)	2.39 µM (inactive)	0.138 µM (active)	1.07 µM (active)	1.53 µM (inactive)	2.11 µM (inactive)	1.45 µM (inactive)		2.07 µM (inactive)		0.568 µM (active)	1.11 µM (active)			
O=C1N[C@@H]([C@H](CCCCCO)OC(=O)c2ccccc2)CO1	> 100 µM (inactive)	> 100 µM (inactive)	> 100 µM (inactive)	> 100 µM (inactive)	> 100 µM (inactive)	> 100 µM (inactive)	> 100 µM (inactive)	> 100 µM (inactive)	> 100 µM (inactive)	> 100 µM (inactive)	> 100 µM (inactive)					> 100 µM (inactive)	> 100 µM (inactive)			
C=C1CC(OC)(C(O)C(=O)N[C@H]2OCO[C@H]3C2O[C@H](C[C@@H](CO)OC)C(C)(C)C3OC)O[C@H](C)[C@@H]1C (stereo not given in full)	< 0.00931 µM (active)	< 0.00931 µM (active)		< 0.00931 µM (active)	< 0.00931 µM (active)				< 0.00931 µM (active)							< 0.00931 µM (active)	< 0.00931 µM (active)	< 0.00931 µM (active)	< 0.00931 µM (active)	
Cn1c(=O)nc2n(-c3ccc(Cl)cc3Cl)c3ccccc3nc-2c1=O	7.21 µM (inactive)		5.27 µM (inactive)					19.2 µM (inactive)				1.76 µM (inactive)		1.24 µM (inactive)	3.05 µM (inactive)		11.7 µM (inactive)	1.94 µM (inactive)	1.02 µM (active)	14.6 µM (inactive)
